Series [1] concerns HIV-1 (IIIB). Kind of series: microbe, parasite or virus in culture. The series is classed as cell-based. Particulars: Human immunodeficiency virus 1, IIIB, MT4, 120 h, HIV-1 (IIIB) in MT-4 cells, 5 days incubation, Cell Titer Glo; read-out: MT4 EC50. (Cellular ATP, detected with luciferase, serves as a proxy for viable cell number.)
Series [2] has as its system pLAI reporter virus. Kind of series: microbe, parasite or virus in culture. The conditions noted are these: Human immunodeficiency virus 1, MT4, 72 h. The series is classed as cell-based, HIV.
Series [3] can be described thus: in vitro. The conditions noted are these: human, uninfected MT-4 cells.

SMILES strings stand for the structures. Read-outs that look alike come from different tables or passages of the source.

From US20250115620A1, “BRIDGED TRICYCLIC CARBAMOYLPYRIDONE COMPOUNDS AND USES THEREOF” (Gilead Sciences, Inc., priority 2022, published 2025) come the findings set out here.

A word on the EC50: it is the midpoint of the concentration-response curve. Broadly, the CC50 is the concentration at which the toxic effect on the cells reaches its halfway point. High values mean lower toxicity to the cells, low ones greater toxicity to the cells.

Consider `C[C@H]1CC[C@@]2(COCO2)[C@H]2CN1C(=O)c1c(O)c(=O)c(C(=O)NCc3c(F)cc(F)cc3F)cn12` [Example 131, (3′S,4S,7′R)-12′-hydroxy-3′-methyl-1′,11′-dioxo-N-(2,4,6-trifluorobenzyl)-1′,4′,5′,11′-tetrahydro-3′H,7′H-spiro[[1,3]dioxolane-4,6′-[2,7]methanopyrido[1,2-a][1,4]diazonine]-10′-carboxamide], for which the values for the EC50 in series [1], in series [2] (read-out: RLUC 50% HS EC50) and in series [2] (read-out: RLUC CCM EC50) were 1.9 nM, 8.1 nM and 0.5 nM, respectively. The molecule further returned a CC50 at 5 days in series [3] of 28.9 µM.

Turning to `C[C@H]1CC[C@]2(CC(c3ccccc3)=NO2)[C@H]2CN1C(=O)c1c(O)c(=O)c(C(=O)NCc3ccc(F)cc3F)cn12` [Example 11, (3′S,5S,7′R)—N-(2,4-difluorobenzyl)-12′-hydroxy-3′-methyl-1′,11′-dioxo-3-phenyl-1′,4′,5′,11′-tetrahydro-3′H,4H,7′H-spiro[isoxazole-5,6′-[2,7]methanopyrido[1,2-a][1,4]diazonine]-10′-carboxamide], the figures for the EC50 in series [1], in series [2] (read-out: RLUC 50% HS EC50) and in series [2] (read-out: RLUC CCM EC50) were 1.8 nM, 15.4 nM and 1.7 nM, respectively. For the same molecule, in series [3], the CC50 at 5 days amounted to 8.73 µM.

`C[C@H]1CC[C@]2(Cc3ccccc3O2)[C@H]2CN1C(=O)c1c(O)c(=O)c(C(=O)NCc3c(F)cc(F)cc3F)cn12` [Example 143, (2S,3′S,7′R)-12′-hydroxy-3′-methyl-1′,11′-dioxo-N-(2,4,6-trifluorobenzyl)-1′,4′,5′,11′-tetrahydro-3H,3′H,7′H-spiro[benzofuran-2,6′-[2,7]methanopyrido[1,2-a][1,4]diazonine]-10′-carboxamide]: the EC50 in series [1] was determined as 1.4 nM; in series [2] (read-out: RLUC 50% HS EC50), 78.4 nM; in series [2] (read-out: RLUC CCM EC50) it was 0.1 nM. Also, it took 24.4 µM to reach half-maximal cytotoxicity in series [3] (CC50 at 5 days).

In the case of `C[C@H]1CC[C@]2(CC(N3CCCC3)=NO2)[C@H]2CN1C(=O)c1c(O)c(=O)c(C(=O)NCc3c(F)cc(F)cc3F)cn12` [Example 75, (3′S,5S,7′R)-12′-hydroxy-3′-methyl-1′,11′-dioxo-3-(pyrrolidin-1-yl)-N-(2,4,6-trifluorobenzyl)-1′,4′,5′,11′-tetrahydro-3′H,4H,7′H-spiro[isoxazole-5,6′-[2,7]methanopyrido[1,2-a][1,4]diazonine]-10′-carboxamide], the figures for the EC50 in series [1], in series [2] (read-out: RLUC 50% HS EC50) and in series [2] (read-out: RLUC CCM EC50) were 1.8 nM, 1.8 nM and 0.3 nM, respectively. Moreover, the CC50 at 5 days in series [3] was determined as 14.1 µM.

Regarding `C[C@H]1CC[C@@]2(CC(=O)N(Cc3ccc(F)cc3)O2)[C@H]2CN1C(=O)c1c(O)c(=O)c(C(=O)NCc3c(F)cc(F)cc3F)cn12` [Example 102, (3′S,5R,7′R)-2-(4-fluorobenzyl)-12′-hydroxy-3′-methyl-1′,3,11′-trioxo-N-(2,4,6-trifluorobenzyl)-1′,4′,5′,11′-tetrahydro-3′H,7′H-spiro[isoxazolidine-5,6′-[2,7]methanopyrido[1,2-a][1,4]diazonine]-10′-carboxamide], the EC50 in series [1] is 11.5 nM; in series [2] (read-out: RLUC 50% HS EC50) it was 30 nM; in series [2] (read-out: RLUC CCM EC50) it was 2 nM. This molecule also yielded a CC50 at 5 days in series [3] of 8.79 µM.

For `C[C@H]1CC[C@]2(CC(OC3COC3)=NO2)[C@H]2CN1C(=O)c1c(O)c(=O)c(C(=O)NCc3ccc(F)cc3F)cn12` [Example 45, (3′S,5S,7′R)—N-(2,4-difluorobenzyl)-12′-hydroxy-3′-methyl-3-(oxetan-3-yloxy)-1′,11′-dioxo-1′,4′,5′,11′-tetrahydro-3′H,4H,7′H-spiro[isoxazole-5,6′-[2,7]methanopyrido[1,2-a][1,4]diazonine]-10′-carboxamide], the values for the EC50 in series [1], in series [2] (read-out: RLUC 50% HS EC50) and in series [2] (read-out: RLUC CCM EC50) were 2 nM, 1.8 nM and 0.4 nM, respectively. For the same molecule, the cytotoxic concentration (CC50) at 5 days in series [3] was not below 50 µM.
